{"source": "paper PMC12526212", "about": "“Novel Isolongifolenone-Based Caprolactam Derivatives as Potential Anticancer Agents via the p53/mTOR/Autophagy Pathway” (Molecules, 2025)", "key": {"MCF-7 cells [1]": {"tested_on": "MCF-7 cells", "assay": "Monodansylcadaverine (MDC) staining assay for autophagy", "assay_type": "cell-based, human", "details": "24 h, compared with control; 3-MA as co-treatment with E10", "description": "To investigate whether E10 induced autophagy in MCF-7 cells, we performed Monodansylcadaverine (MDC) staining, transmission electron microscopy (TEM), and Western blot analysis to evaluate autophagy-related markers. MDC is a fluorescent probe commonly used to detect the formation of autophagic vacuoles, as it specifically labels autophagosomes.\nMDC is a staining indicator for the formation of autophagosome. MCF-7 cells were seeded at a density of 2 × 10^5 cells per well in 6-well plates. MCF-7 cells were inoculated into a 6-well plate, and the cells were treated with E10 for 24 h. The treated cells were washed twice with buffer and then stained with MDC (Beijing Solarbio Science & Technology Co., Ltd., Beijing, China) for 40 min. The cells were then detected under a fluorescence microscope (Carl Zeiss, Jena, Germany)."}, "MCF-7 cells [2]": {"tested_on": "MCF-7 cells", "assay": "Annexin V/PI apoptosis assay by flow cytometry", "assay_type": "cell-based, human", "details": "Figure 6A, in comparison with control", "description": "The ability of drugs to induce cancer cell apoptosis is a key indicator of their chemotherapeutic potential. […] To examine the apoptotic effects of E10, an Annexin V-FITC dual-staining assay (with flow cytometric analysis) was performed. As shown in Figure 3A (also Figure 3C), treatment with increasing concentrations of E10 induced a marked elevation in apoptotic cell populations.\nAutophagy has bidirectional regulation effects on cell survival. To confirm the role of autophagy in E10-induced cell death, 3-MA was used as an autophagy blocker.\nMCF-7 cells were seeded at a density of 6 × 10^5 cells per well in 12-well plates and incubated in a 37 °C, 5% CO2 incubator for 24 h. After treatment with different concentrations of compound E10, the cells were washed with PBS two times, collected by trypsin enzymic digestion and centrifugation, and the collected cells were subsequently stained with 5 µL Annexin V-APC (YSRIBIO-C1084) and 5 µL PI for 10 min in the dark conditions. The cell apoptosis was measured with the flow cytometry (BD), and the data were analyzed by flowjo 10.6 software."}}}
{"compound": "Cn1cnc(N)c2ncnc1-2", "note": "[3-MA, 3-methyladenine, reference compound]", "values": [{"measurement": "MDC staining, autophagosome formation", "setting": "MCF-7 cells [1]", "result": "marked reduction in fluorescence intensity"}, {"measurement": "cell apoptosis with or without autophagy blocker 3-MA", "setting": "MCF-7 cells [2]", "result": "reversed E10-induced apoptosis"}]}
